Assay results taken from patent US20190375708A1 (VenatoRx Pharmaceuticals, Inc., priority 2018, published 2019).

How the values were obtained:
[1] = system: HBV replication in HepAD38 cells; assay: Anti-HBV replication assay in HepAD38 cells (QPCR of extracellular HBV DNA); type: cell-based, HBV (genotype D, serotype ayw); conditions: Hepatitis B virus, 168 h, 7 days incubation, extracellular HBV DNA by QPCR, read-out: Anti-HBV EC50
Summary of the method: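 Stably transfected HepG2-derived HepAD38 cells express HBV (genotype D, ayw) once tetracycline is withdrawn. Compounds act for 7 days, after which secreted HBV DNA is quantified by QPCR relative to DMSO-treated wells.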

[2] = In vitro cytotoxicity assay (MTT cell viability) in HepG2 cells; type: cell-based, human; conditions: human
Summary of the method: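 Viability measured by MTT conversion, absorbance at 492 nm, as percent of vehicle-treated wells. Compounds spanned 30 μM to 1.0 nM in half-log steps over a 7-day exposure of parental HepG2 cells; CC50 derived by 4-parameter curve fit.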

SMILES	EC50 [1]	CC50 at 7 days [2]
Cc1cc(NC(=O)c2c(C)c(C(=O)C(=O)N[C@H]3CCOC[C@@H]3O)n(C)c2C)ccc1F [Example 187, N-(4-fluoro-3-methylphenyl)-5-(2-(((3R,4S)-3-hydroxytetrahydro-2H-pyran-4-yl)amino)-2-oxoacetyl)-1,2,4-trimethyl-1H-pyrrole-3-carboxamide]	> 1000 nM	> 30000 nM
Cc1noc(C(NC(=O)C(=O)c2c(C)c(C(=O)Nc3ccc(F)c(C)c3)c(C)n2C)C(C)C)n1 (stereo not shown) [Example 81, N-(4-fluoro-3-methylphenyl)-1,2,4-trimethyl-5-(2-((2-methyl-1-(3-methyl-1,2,4-oxadiazol-5-yl)propyl)amino)-2-oxoacetyl)-1H-pyrrole-3-carboxamide]	< 50 nM	> 30000 nM
CC(C)(O)CNC(=O)C(=O)c1c(Cl)c(C(=O)Nc2ccc(F)c(Cl)c2)c2n1CCCC2 [Example 532, 2-chloro-N-(3-chloro-4-fluorophenyl)-3-(2-((2-hydroxy-2-methylpropyl)amino)-2-oxoacetyl)-5,6,7,8-tetrahydroindolizine-1-carboxamide]	500 to 1000 nM	500 to 4990 nM
Cc1cc(NC(=O)c2c(C)c(C(=O)C(=O)NC3(C(F)(F)F)CCOCC3)n(C)c2C)cnc1F [Example 163, N-(6-fluoro-5-methylpyridin-3-yl)-1,2,4-trimethyl-5-(2-oxo-2-((4-(trifluoromethyl)tetrahydro-2H-pyran-4-yl)amino)acetyl)-1H-pyrrole-3-carboxamide]	> 1000 nM	> 30000 nM
CC(C)(C)NC(=O)C(=O)c1cc(C(=O)Nc2ccc(F)c(Cl)c2)c2n1CCC2 [Example 535, 5-(2-(tert-butylamino)-2-oxoacetyl)-N-(3-chloro-4-fluorophenyl)-2,3-dihydro-1H-pyrrolizine-7-carboxamide]	< 50 nM	500 to 4990 nM
CNC(=O)[C@H](NC(=O)C(=O)c1c(C)c(C(=O)Nc2ccc(F)c(C)c2)c(C)n1C)C(C)C [Example 106, (R)-N-(4-fluoro-3-methylphenyl)-1,2,4-trimethyl-5-(2-((3-methyl-1-(methylamino)-1-oxobutan-2-yl)amino)-2-oxoacetyl)-1H-pyrrole-3-carboxamide]	< 50 nM	500 to 4990 nM
Cc1cc(NC(=O)c2c(C)c(C(=O)C(=O)NC3(CO)CCC3)n3c2CCCC3)ccc1F [Example 442, N-(4-fluoro-3-methylphenyl)-3-(2-((1-(hydroxymethyl)cyclobutyl)amino)-2-oxoacetyl)-2-methyl-5,6,7,8-tetrahydroindolizine-1-carboxamide]	< 50 nM	5000 to 30000 nM
Cc1cc(NC(=O)c2c(C)c(C(=O)C(=O)NCCN3CCC(O)CC3)n(C)c2C)ccc1F [Example 292, N-(4-fluoro-3-methylphenyl)-5-(2-((2-(4-hydroxypiperidin-1-yl)ethyl)amino)-2-oxoacetyl)-1,2,4-trimethyl-1H-pyrrole-3-carboxamide]	50 to 499 nM	> 30000 nM
Cc1cc(NC(=O)c2c(Cl)c(C(=O)C(=O)NCC(C)(C)CO)n3c2CCCC3)ccc1F [Example 498, 2-chloro-N-(4-fluoro-3-methylphenyl)-3-(2-((3-hydroxy-2,2-dimethylpropyl)amino)-2-oxoacetyl)-5,6,7,8-tetrahydroindolizine-1-carboxamide]	50 to 499 nM	> 30000 nM
Cc1c(C(=O)Nc2ccc(F)c(F)c2)c2n(c1C(=O)C(=O)N[C@H]1COC[C@@H]1O)CCCC2 [Example 457, N-(3,4-difluorophenyl)-3-(2-(((3S,4R)-4-hydroxytetrahydrofuran-3-yl)amino)-2-oxoacetyl)-2-methyl-5,6,7,8-tettrahydroindolizine-1-carboxamide]	50 to 499 nM	> 30000 nM
Cc1cc(NC(=O)c2c(Cl)c(C(=O)C(=O)NC3(CO)CCC3)n3c2CCCC3)ccc1F [Example 504, 2-chloro-N-(4-fluoro-3-methylphenyl)-3-(2-((1-(hydroxymethyl)cyclobutyl)amino)-2-oxoacetyl)-5,6,7,8-tetrahydroindolizine-1-carboxamide]	< 50 nM	5000 to 30000 nM
